Data as given in PMC10046961, “High-Throughput Screening Assay for Detecting Drug-Induced Changes in Synchronized Neuronal Oscillations and Potential Seizure Risk Based on Ca^2+ Fluorescence Measurements in Human Induced Pluripotent Stem Cell (hiPSC)-Derived Neuronal 2D and 3D Cultures” (Cells, 2023).
Read-outs that look alike come from different tables or passages of the source. Marks after values point to notes of the source that are not given here.

Tests used:
[1] = cited from earlier work
[2] = system: hiPSC-derived neurons co-cultured with human primary astrocytes in 3D; experiment: Ca2+ transient oscillation assay (FDSS), 3D spheroids; format: cell-based; conditions: 60 min
How it was run: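 Fura-2 fluorescence was read twice for 20 min each: a baseline 10 min after 0.04% DMSO, and again 60 min after compound addition at nominal final concentration. The 3D co-cultures (1:1 hiPSC neurons from a donor and human astrocytes, 8000 each) matured 5 weeks in BrainPhys medium after a 1-week differentiation.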

[3] = system: hiPSC-derived neurons co-cultured with human primary astrocytes in 2D; experiment: Ca2+ transient oscillation assay (FDSS), 2D co-culture; format: cell-based; conditions: for effect on peak number / Ca2+ neuronal oscillations, in words: 2D format; for activation at 0.37 µM / activation at 1.11 µM / activation at 3.33 µM / activation at 10 µM / activation at 3.7 µM / activation at 11.11 µM / activation at 33.33 µM / activation at 100 µM / activation at 300 µM: Homo sapiens, 1 h, 60 min
How it was run: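 hiPSC-derived excitatory neurons (CW50065, Quick-Neuron EX-SeV) co-cultured with human primary astrocytes at 4:1 (10,000:2500 cells per well). Cal-520-loaded cells in HBSS with 2 mM CaCl2 and 10 mM HEPES were pretreated with 0.04% DMSO.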

[4] = ref PharmaPendium, cited from earlier work
[5] = humans; cited from earlier work
[6] = read-out: Area under the curve - 2D Mean
[7] = read-out: Peak amplitude - 2D Mean
[8] = read-out: Peak-to-peak interval - 2D Mean
[9] = Table 1, peak plasma concentration in men, free therapeutic Cmax
[10] = Table 2, highest plasma concentration in humans after the therapeutic dose

## Cc1ccc(Nc2nccc(N(C)c3ccc4c(C)n(C)nc4c3)n2)cc1S(N)(=O)=O [Pazopanib]
[1]
  seizure risk in humans: does not have a seizure risk
[2]; 0.37 µM
  Area under the curve - 3D Mean: 125.7 % change from baseline
  Peak Number—3D Mean: 6.4 % change from baseline
  Peak amplitude - 3D Mean: 101.6 % change from baseline
  Peak width - 3D Mean: 9.7 % change from baseline
  Peak-to-peak interval - 3D Mean: −2.0 % change from baseline
[2]; 1.11 µM
  Area under the curve - 3D Mean: 127.9 % change from baseline
  Peak Number—3D Mean: −4.2 % change from baseline
  Peak amplitude - 3D Mean: 110.2 % change from baseline
  Peak width - 3D Mean: 7.7 % change from baseline
  Peak-to-peak interval - 3D Mean: 4.1 % change from baseline
[2]; 3.33 µM
  Area under the curve - 3D Mean: 116.3 % change from baseline
  Peak Number—3D Mean: 0.8 % change from baseline
  Peak amplitude - 3D Mean: 107.5 % change from baseline
  Peak width - 3D Mean: 4.1 % change from baseline
  Peak-to-peak interval - 3D Mean: −3.0 % change from baseline
[2]; 10 µM
  Area under the curve - 3D Mean: 117.4 % change from baseline
  Peak Number—3D Mean: −2.0 % change from baseline
  Peak amplitude - 3D Mean: 101.7 % change from baseline
  Peak width - 3D Mean: 8.7 % change from baseline
  Peak-to-peak interval - 3D Mean: 7.5 % change from baseline
[3]
  effect on peak number / Ca2+ neuronal oscillations, in words: significantly reduced peak number
[3]; [6]
  activation at 0.37 µM: -1.8%
  activation at 1.11 µM: 7.8%
  activation at 3.33 µM: 38.8%
  activation at 10 µM: 16.3%
[3]; read-out: Peak Number—2D Mean
  activation at 0.37 µM: -49%
  activation at 1.11 µM: 4.4%
  activation at 3.33 µM: 11.3%
  activation at 10 µM: 10%
[3]; [7]
  activation at 0.37 µM: -15.8%
  activation at 1.11 µM: -3.8%
  activation at 3.33 µM: 11.2%
  activation at 10 µM: 9.5%
[3]; read-out: Peak width - 2D Mean
  activation at 0.37 µM: -4.8%
  activation at 1.11 µM: 12.6%
  activation at 3.33 µM: 27.8%
  activation at 10 µM: 3.7%
[3]; [8]
  activation at 0.37 µM: 14.6%
  activation at 1.11 µM: -2.6%
  activation at 3.33 µM: 0.5%
  activation at 10 µM: 14.2%
[4]; [9]
  Free Cmax: 600 to 1200 nM
[4]; [10]
  Free Cmax: 600 to 1200 nM
[5]
  crossing of the blood–brain barrier: does not cross the blood–brain barrier

## NCCc1c[nH]c2ccc(O)cc12 [Serotonin]
[2]; 3.7 µM
  Area under the curve - 3D Mean: −19.4 % change from baseline
  Peak Number—3D Mean: −70.7 ** % change from baseline
  Peak amplitude - 3D Mean: −4.3 % change from baseline
  Peak width - 3D Mean: −54.0 % change from baseline
  Peak-to-peak interval - 3D Mean: −58.0 % change from baseline
[2]; 11.11 µM
  Area under the curve - 3D Mean: 19.8 % change from baseline
  Peak Number—3D Mean: −69.1 ** % change from baseline
  Peak amplitude - 3D Mean: 33.7 % change from baseline
  Peak width - 3D Mean: −31.8 % change from baseline
  Peak-to-peak interval - 3D Mean: −37.9 % change from baseline
[2]; 33.33 µM
  Area under the curve - 3D Mean: −21.3 % change from baseline
  Peak Number—3D Mean: −82.1 ** % change from baseline
  Peak amplitude - 3D Mean: −3.1 % change from baseline
  Peak width - 3D Mean: −52.3 % change from baseline
  Peak-to-peak interval - 3D Mean: 29.2 % change from baseline
[2]; 100 µM
  Area under the curve - 3D Mean: −21.1 % change from baseline
  Peak Number—3D Mean: −80.3 ** % change from baseline
  Peak amplitude - 3D Mean: −10.3 % change from baseline
  Peak width - 3D Mean: −55.4 % change from baseline
  Peak-to-peak interval - 3D Mean: −82.0 % change from baseline
[3]
  effect on peak number / Ca2+ neuronal oscillations, in words: significantly reduced peak number
[3]; [6]
  activation at 3.7 µM: 12.8%
  activation at 11.11 µM: 11.1%
  activation at 33.33 µM: -8.9%
  activation at 100 µM: -2.6%
[3]; read-out: Peak Number—2D Mean
  activation at 3.7 µM: -23.4%
  activation at 11.11 µM: -1.7%
  activation at 33.33 µM: -43.8%
  activation at 100 µM: -45.8%
[3]; [7]
  activation at 3.7 µM: -4.9%
  activation at 11.11 µM: -13.7%
  activation at 33.33 µM: -27.1%
  activation at 100 µM: -16.6%
[3]; read-out: Peak width - 2D Mean
  activation at 3.7 µM: 17.3%
  activation at 11.11 µM: 18.3%
  activation at 33.33 µM: -1.4%
  activation at 100 µM: 11.4%
[3]; [8]
  activation at 3.7 µM: 28.4%
  activation at 11.11 µM: 65.8%
  activation at 33.33 µM: 36.4%
  activation at 100 µM: 55.3%
[4]; [9]
  Free Cmax: 1000 to 2000 nM
[4]; [10]
  Free Cmax: 1000 to 2000 nM

## Cn1c(=O)c2[nH]cnc2n(C)c1=O [Theophylline]
[2]; 11.11 µM
  Area under the curve - 3D Mean: 156.1 % change from baseline
  Peak Number—3D Mean: 2.0 % change from baseline
  Peak amplitude - 3D Mean: 121.2 % change from baseline
  Peak width - 3D Mean: 11.1 % change from baseline
  Peak-to-peak interval - 3D Mean: −4.0 % change from baseline
[2]; 33.33 µM
  Area under the curve - 3D Mean: 171.1 % change from baseline
  Peak Number—3D Mean: 53.5 * % change from baseline
  Peak amplitude - 3D Mean: 142.1 % change from baseline
  Peak width - 3D Mean: 12.2 % change from baseline
  Peak-to-peak interval - 3D Mean: −21.2 % change from baseline
[2]; 100 µM
  Area under the curve - 3D Mean: 148.8 % change from baseline
  Peak Number—3D Mean: 78.1 * % change from baseline
  Peak amplitude - 3D Mean: 99.6 % change from baseline
  Peak width - 3D Mean: 21.3 % change from baseline
  Peak-to-peak interval - 3D Mean: −37.1 % change from baseline
[2]; 300 µM
  Area under the curve - 3D Mean: 134.2 % change from baseline
  Peak Number—3D Mean: 114.2 * % change from baseline
  Peak amplitude - 3D Mean: 89.4 % change from baseline
  Peak width - 3D Mean: 29.3 % change from baseline
  Peak-to-peak interval - 3D Mean: −45.7 % change from baseline
[3]
  effect on peak number / Ca2+ neuronal oscillations, in words: significantly increased peak number
[3]; [6]
  activation at 11.11 µM: 32.3%
  activation at 33.33 µM: 41.7%
  activation at 100 µM: 29.7%
  activation at 300 µM: 72.8%
[3]; read-out: Peak Number—2D Mean
  activation at 11.11 µM: -5.7%
  activation at 33.33 µM: 24.7%
  activation at 100 µM: 39.3%
  activation at 300 µM: 118%
[3]; [7]
  activation at 11.11 µM: 12.7%
  activation at 33.33 µM: 15.3%
  activation at 100 µM: 10%
  activation at 300 µM: 6%
[3]; read-out: Peak width - 2D Mean
  activation at 11.11 µM: 22.8%
  activation at 33.33 µM: 31.2%
  activation at 100 µM: 24.3%
  activation at 300 µM: 113%
[3]; [8]
  activation at 11.11 µM: 24.3%
  activation at 33.33 µM: -5.2%
  activation at 100 µM: -26.3%
  activation at 300 µM: -46.8%
[4]; [9]
  Free Cmax: 8000 to 15000 nM
[4]; [10]
  Free Cmax: 8000 to 15000 nM
